A short description of data set [1]: logP (HCOOH). The format is physicochemical. Particulars: HCOOH. An excerpt: Table 2 (physicochemical characterization of selected synthesis examples)
Data set [2] concerns Ipomoea purpurea. Kind of data set: Post-emergence herbicidal effect. Format: in vivo. Particulars: assessed visually after about 3 weeks vs untreated controls. The method in brief: (§1)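 Action, expressed in percent from 0 (like controls) to 100 (plants died), is read by eye about 3 weeks after foliar application. Applications use formulated product in water at 600–800 L/ha on one-leaf-stage plants sown in sandy loam.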

Data set [3] deals with Alopecurus myosuroides. Kind of data set: Post-emergence herbicidal effect. Format: in vivo. Particulars: assessed visually after about 3 weeks vs untreated controls. Put shortly: as §1
Data set [4] has as its system Lolium multiflorum. Kind of data set: Post-emergence herbicidal effect. Particulars: assessed visually after about 3 weeks vs untreated controls. Format: in vivo. Put shortly:
as §1

In data set [5] the test system is Abutilon theophrasti. Kind of data set: Post-emergence herbicidal effect. The format is in vivo. Particulars: assessed visually after about 3 weeks vs untreated controls. Put shortly:
as §1

Data set [6] deals with Polygonum convolvulus. The experiment in a line: Post-emergence herbicidal effect. The format is in vivo. Particulars: assessed visually after about 3 weeks vs untreated controls. Put shortly:
as §1

Data set [7] concerns Echinochloa crus-galli. The experiment in a line: Post-emergence herbicidal effect. The format is in vivo. Particulars: assessed visually after about 3 weeks vs untreated controls. The method in brief: as §1
Data set [8] has as its system Viola tricolor. Kind of data set: Post-emergence herbicidal effect. Particulars: assessed visually after about 3 weeks vs untreated controls. Format: in vivo. Put shortly: as §1
Data set [9] concerns Veronica persica. Kind of data set: Post-emergence herbicidal effect. Format: in vivo. Particulars: assessed visually after about 3 weeks vs untreated controls. The method in brief:
as §1

The test system of data set [10] is Setaria viridis. The experiment in a line: Post-emergence herbicidal effect. Format: in vivo. Particulars: assessed visually after about 3 weeks vs untreated controls. The method in brief:
as §1

In data set [11] the test system is Stellaria media. Kind of data set: Post-emergence herbicidal effect. The format is in vivo. Particulars: assessed visually after about 3 weeks vs untreated controls. The method in brief: as §1
Data set [12] has as its system Amaranthus retroflexus. Kind of data set: Post-emergence herbicidal effect. Particulars: assessed visually after about 3 weeks vs untreated controls. Format: in vivo. Put shortly:
as §1

The test system of data set [13] is Alopecurus myosuroides. Kind of data set: Pre-emergence herbicidal effect. Format: in vivo. Particulars: scored visually after 3 weeks. The method in brief:
(§2)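 Herbicidal activity (%) is a visual rating made 3 weeks after treatment by comparison with untreated controls, where 0% equals control plants and 100% means the plants died. Application went onto the soil covering sown seeds before emergence.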

Data set [14] has as its system Lolium multiflorum. Kind of data set: Pre-emergence herbicidal effect. Format: in vivo. Particulars: Dosage 320 g/ha, scored visually after 3 weeks. Put shortly: as §2
Data set [15] has as its system Avena fatua. Kind of data set: Pre-emergence herbicidal effect. The format is in vivo. Particulars: Dosage 320 g/ha, scored visually after 3 weeks. Put shortly:
as §2

Data set [16] concerns Abutilon theophrasti. The experiment in a line: Pre-emergence herbicidal effect. Format: in vivo. Particulars: scored visually after 3 weeks. Put shortly:
as §2

The test system of data set [17] is Matricaria inodora. The experiment in a line: Pre-emergence herbicidal effect. The format is in vivo. Particulars: scored visually after 3 weeks. Put shortly:
as §2

Data set [18] has as its system Polygonum convolvulus. The experiment in a line: Pre-emergence herbicidal effect. Format: in vivo. Particulars: Dosage 320 g/ha, scored visually after 3 weeks. Put shortly: as §2
Data set [19] has as its system Echinochloa crus-galli. Kind of data set: Pre-emergence herbicidal effect. Format: in vivo. Particulars: scored visually after 3 weeks. The method in brief: as §2
Data set [20] deals with Viola tricolor. The experiment in a line: Pre-emergence herbicidal effect. Format: in vivo. Particulars: scored visually after 3 weeks. Put shortly: as §2
Data set [21] relates to Veronica persica. Kind of data set: Pre-emergence herbicidal effect. Format: in vivo. Particulars: scored visually after 3 weeks. Put shortly:
as §2

The test system of data set [22] is Setaria viridis. The experiment in a line: Pre-emergence herbicidal effect. Particulars: scored visually after 3 weeks. The format is in vivo. The method in brief: as §2
In data set [23] the test system is Stellaria media. Kind of data set: Pre-emergence herbicidal effect. The format is in vivo. Particulars: scored visually after 3 weeks. Put shortly:
as §2

Data set [24] has as its system Amaranthus retroflexus. Kind of data set: Pre-emergence herbicidal effect. Particulars: scored visually after 3 weeks. The format is in vivo. Put shortly: as §2
Data set [25] concerns Cyperus esculentus. The experiment in a line: Pre-emergence herbicidal effect. The format is in vivo. Particulars: Dosage 320 g/ha, scored visually after 3 weeks. Put shortly: as §2

SMILES strings stand for the structures.

As for `Cc1cc2c(s1)C(Nc1ncc(C(F)(F)F)c(N)n1)CCC2` (racemic) [compound 55], the “logP (HCOOH)” value in data set [1] was “oily; logP (HCOOH): 2.46; 1H NMR (CDCl3, 400 MHZ, δ in ppm): 1.85-2.00 (m, 3H,”. The “post-emergence efficacy PHBPU” value in data set [2] (80 g/ha) and in [2] (320 g/ha) was 100% throughout. Moreover, the “post-emergence efficacy ALOMY” value in data set [3] (80 g/ha) and in data set [3] (320 g/ha) was 90% throughout. Further, the “post-emergence efficacy LOLMU” value in data set [4] (80 g/ha) is on record as 80%; in data set [4] (320 g/ha) it was 90%. The “post-emergence efficacy ABUTH” value in data set [5] (80 g/ha) and in data set [5] (320 g/ha) was 90% in each case. The “post-emergence efficacy POLCO” value in data set [6] (80 g/ha) and in [6] (320 g/ha) was 90% in each case. Further, the “post-emergence efficacy ECHCG” value in data set [7] (80 g/ha) and in data set [7] (320 g/ha) was 100% throughout. Also, the “post-emergence efficacy VIOTR” value in data set [8] (80 g/ha) came to 90%; in [8] (320 g/ha) it was 100%. Also, the “post-emergence efficacy VERPE” value in data set [9] (80 g/ha) was found to be 90%; in [9] (320 g/ha) it was 100%. For the same molecule, the “post-emergence efficacy SETVI” value in data set [10] (80 g/ha) and in data set [10] (320 g/ha) was 90% in each case. The “post-emergence efficacy STEME” value in data set [11] (80 g/ha) and in [11] (320 g/ha) was 100% each time. Also, the “post-emergence efficacy AMARE” value in data set [12] (80 g/ha) worked out at 90%; in [12] (320 g/ha), 100%. The “ALOMY pre-emergence efficacy (herbicidal activity)” value turned out to be 90% in [13] (Dosage 80 g/ha) and 100% in data set [13] (Dosage 320 g/ha). Moreover, the “LOLMU pre-emergence efficacy (herbicidal activity)” value in data set [14] stood at 100%. For the same molecule, in data set [15], the “AVEFA pre-emergence efficacy (herbicidal activity)” value came out at 100%. For the same molecule, the “ABUTH pre-emergence efficacy (herbicidal activity)” value in [16] (Dosage 80 g/ha) and in data set [16] (Dosage 320 g/ha) was 100% in each case. Also, the “MATIN pre-emergence efficacy (herbicidal activity)” value (“MATIN pre-emergence efficacy” below) in [17] (Dosage 80 g/ha) and in data set [17] (Dosage 320 g/ha) was 100% in each case. Further, the “POLCO pre-emergence efficacy (herbicidal activity)” value in data set [18] is 90%. The “ECHCG pre-emergence efficacy (herbicidal activity)” value in [19] (Dosage 80 g/ha) and in [19] (Dosage 320 g/ha) was 100% throughout. In addition, the “VIOTR pre-emergence efficacy (herbicidal activity)” value (“VIOTR pre-emergence efficacy” below) in data set [20] (Dosage 80 g/ha) and in [20] (Dosage 320 g/ha) was 100% in each case. Moreover, the “VERPE pre-emergence efficacy (herbicidal activity)” value in data set [21] (Dosage 80 g/ha) and in data set [21] (Dosage 320 g/ha) was 100% in each case. Further, the “SETVI pre-emergence efficacy (herbicidal activity)” value in [22] (Dosage 80 g/ha) and in data set [22] (Dosage 320 g/ha) was 100% each time. Also, the “STEME pre-emergence efficacy (herbicidal activity)” value in data set [23] (Dosage 80 g/ha) and in data set [23] (Dosage 320 g/ha) was 100% in each case. Moreover, the “AMARE pre-emergence efficacy (herbicidal activity)” value in data set [24] (Dosage 80 g/ha) and in data set [24] (Dosage 320 g/ha) was 100% in each case.
On to `Cc1cc2c(s1)CCCC2Nc1nc(N)c(Br)c(C(C)(C)F)n1` (racemic) [compound 307], for which the “MATIN pre-emergence efficacy” value in data set [17] (Dosage 320 g/ha) stood at 50%. For the same molecule, the “POLCO pre-emergence efficacy (herbicidal activity)” value in [18] was determined as 70%. The “VIOTR pre-emergence efficacy” value in [20] (Dosage 320 g/ha) came out at 100%. Also, the “CYPES pre-emergence efficacy (herbicidal activity)” value in data set [25] turned out to be 60%.
`CS(=O)(=O)c1cnc(NC2CCCc3occc32)nc1N` (racemic) [compound 13]: the “post-emergence efficacy VIOTR” value in data set [8] (320 g/ha) is 100%. Besides, in data set [9] (320 g/ha), the “post-emergence efficacy VERPE” value turned out to be 90%. In data set [11] (320 g/ha), the “post-emergence efficacy STEME” value is on record as 80%. Moreover, in [17] (Dosage 320 g/ha), the “MATIN pre-emergence efficacy” value amounted to 100%. The “VIOTR pre-emergence efficacy” value in data set [20] (Dosage 320 g/ha) stood at 100%. Also, the “CYPES pre-emergence efficacy (herbicidal activity)” value in data set [25] stood at 100%. The “VERPE pre-emergence efficacy (herbicidal activity)” value in data set [21] (Dosage 320 g/ha) stood at 90%. In addition, in data set [24] (Dosage 320 g/ha), the “AMARE pre-emergence efficacy (herbicidal activity)” value turned out to be 100%.

Source of the values: US10251395B2, “Substituted furano-/thienocycloalkylamino-2-pyrimidine derivatives and use thereof for controlling undesired plant growth” (Bayer CropScience Aktiengesellschaft, priority 2015, dated 2019).
